From US10870647B2, “Imidazopyridine derivative, method for preparing same, and pharmaceutical composition containing same as active ingredient for preventing or treating cancer” (DAEGU-GYEONGBUK MEDICAL INNOVATION FOUNDATION, priority 2016, dated 2020)
Like-named read-outs stand apart in the source and are kept apart here.

What was measured:
Assay in all cases: Kinase selectivity, scanMAX Kinase assay panel (DiscoverX), % control at 1 uM
Format in all cases: binding
[1] = molecular target: T1, scanMAX Kinase assay panel (Homo sapiens, UniProt Q15349); details: 1 uM, read-out: Percent Control (%)
T1 construct: purchased DiscoverX
How it was run: (§1)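 Single-point screen at 1 uM compound in DMSO. Lower % control means stronger inhibition, with the cutoff for activity set at <35%.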

[2] = molecular target: T2, scanMAX Kinase assay panel (Homo sapiens, UniProt P42336, M1043I); details: PIK3CA (M1043I); 1 uM; read-out: Percent Control (%)
T2 construct: purchased DiscoverX
How it was run: as §1

[3] = molecular target: T3, scanMAX Kinase assay panel (Homo sapiens, UniProt Q9UL54); details: TAOK2; 1 uM; read-out: Percent Control (%)
T3 construct: purchased DiscoverX
T3 sequence (Q9UL54 1-1235): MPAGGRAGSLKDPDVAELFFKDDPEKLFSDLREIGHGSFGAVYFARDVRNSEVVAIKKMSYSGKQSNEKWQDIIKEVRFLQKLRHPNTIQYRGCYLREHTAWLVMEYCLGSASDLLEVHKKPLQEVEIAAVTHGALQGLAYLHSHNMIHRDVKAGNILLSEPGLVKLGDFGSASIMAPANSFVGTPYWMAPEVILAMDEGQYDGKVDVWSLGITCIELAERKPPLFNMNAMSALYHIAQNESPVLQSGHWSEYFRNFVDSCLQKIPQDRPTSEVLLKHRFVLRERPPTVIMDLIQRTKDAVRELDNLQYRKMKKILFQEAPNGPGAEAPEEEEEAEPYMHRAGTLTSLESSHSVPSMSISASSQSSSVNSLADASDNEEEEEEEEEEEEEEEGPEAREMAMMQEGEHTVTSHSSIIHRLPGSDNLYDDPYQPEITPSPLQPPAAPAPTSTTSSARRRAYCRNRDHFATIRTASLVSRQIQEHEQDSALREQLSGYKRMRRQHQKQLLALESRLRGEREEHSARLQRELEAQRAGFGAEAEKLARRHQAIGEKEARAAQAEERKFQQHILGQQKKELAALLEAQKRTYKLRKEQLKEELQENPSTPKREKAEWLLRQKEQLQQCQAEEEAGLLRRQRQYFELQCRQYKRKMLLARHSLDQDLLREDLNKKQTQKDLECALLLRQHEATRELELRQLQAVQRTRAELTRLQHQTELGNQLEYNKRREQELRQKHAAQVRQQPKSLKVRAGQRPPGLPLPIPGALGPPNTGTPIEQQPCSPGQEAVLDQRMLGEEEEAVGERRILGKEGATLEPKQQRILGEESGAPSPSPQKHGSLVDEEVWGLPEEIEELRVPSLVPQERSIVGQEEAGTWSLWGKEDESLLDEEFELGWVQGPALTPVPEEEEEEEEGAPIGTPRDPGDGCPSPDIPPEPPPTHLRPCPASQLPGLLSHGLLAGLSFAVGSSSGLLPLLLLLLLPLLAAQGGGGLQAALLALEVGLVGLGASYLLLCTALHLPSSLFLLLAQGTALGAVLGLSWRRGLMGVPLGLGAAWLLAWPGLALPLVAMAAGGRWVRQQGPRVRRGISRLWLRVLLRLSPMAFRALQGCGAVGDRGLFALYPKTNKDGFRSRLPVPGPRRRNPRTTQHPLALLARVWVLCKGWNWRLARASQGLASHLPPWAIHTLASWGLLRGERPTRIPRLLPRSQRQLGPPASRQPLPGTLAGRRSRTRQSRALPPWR
How it was run: as §1

[4] = molecular target: T4, scanMAX Kinase assay panel (Homo sapiens, UniProt O95382); details: ASK2; 1 uM; read-out: Percent Control (%)
T4 construct: purchased DiscoverX
T4 sequence (O95382 1-1288): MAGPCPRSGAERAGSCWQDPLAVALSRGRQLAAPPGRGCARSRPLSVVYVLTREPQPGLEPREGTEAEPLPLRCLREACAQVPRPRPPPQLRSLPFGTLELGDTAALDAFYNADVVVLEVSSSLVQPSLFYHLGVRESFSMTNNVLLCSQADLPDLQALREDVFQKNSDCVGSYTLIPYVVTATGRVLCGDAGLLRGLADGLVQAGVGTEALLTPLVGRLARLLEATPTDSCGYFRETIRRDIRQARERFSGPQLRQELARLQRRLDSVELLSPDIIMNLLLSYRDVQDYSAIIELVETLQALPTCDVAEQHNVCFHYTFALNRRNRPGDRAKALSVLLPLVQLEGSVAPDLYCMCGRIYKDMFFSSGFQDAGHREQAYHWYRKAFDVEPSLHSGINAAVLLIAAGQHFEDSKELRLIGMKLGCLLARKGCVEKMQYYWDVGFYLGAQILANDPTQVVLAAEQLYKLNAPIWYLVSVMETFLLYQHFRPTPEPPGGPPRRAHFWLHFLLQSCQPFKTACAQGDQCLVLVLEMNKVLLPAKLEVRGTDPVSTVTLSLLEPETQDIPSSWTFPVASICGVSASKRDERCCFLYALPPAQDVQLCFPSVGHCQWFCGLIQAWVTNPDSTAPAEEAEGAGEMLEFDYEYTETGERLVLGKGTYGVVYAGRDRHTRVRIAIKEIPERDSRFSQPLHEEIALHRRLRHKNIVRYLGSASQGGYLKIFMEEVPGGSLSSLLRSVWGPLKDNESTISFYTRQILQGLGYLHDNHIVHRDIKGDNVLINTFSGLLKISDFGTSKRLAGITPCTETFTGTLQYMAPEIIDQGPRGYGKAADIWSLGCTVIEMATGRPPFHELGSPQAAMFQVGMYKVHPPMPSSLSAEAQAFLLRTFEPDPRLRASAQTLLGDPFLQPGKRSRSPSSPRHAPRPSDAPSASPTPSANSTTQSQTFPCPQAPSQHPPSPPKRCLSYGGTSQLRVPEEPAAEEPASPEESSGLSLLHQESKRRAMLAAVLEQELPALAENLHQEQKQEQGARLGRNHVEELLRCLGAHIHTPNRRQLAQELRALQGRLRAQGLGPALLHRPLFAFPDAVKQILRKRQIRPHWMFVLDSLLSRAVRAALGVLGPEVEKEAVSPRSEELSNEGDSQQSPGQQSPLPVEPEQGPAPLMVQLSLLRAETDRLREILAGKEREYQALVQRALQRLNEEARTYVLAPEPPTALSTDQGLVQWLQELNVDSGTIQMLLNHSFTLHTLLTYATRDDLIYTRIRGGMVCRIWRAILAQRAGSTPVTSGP
How it was run: as §1

T2 sequence (P42336 whole entry M1043I): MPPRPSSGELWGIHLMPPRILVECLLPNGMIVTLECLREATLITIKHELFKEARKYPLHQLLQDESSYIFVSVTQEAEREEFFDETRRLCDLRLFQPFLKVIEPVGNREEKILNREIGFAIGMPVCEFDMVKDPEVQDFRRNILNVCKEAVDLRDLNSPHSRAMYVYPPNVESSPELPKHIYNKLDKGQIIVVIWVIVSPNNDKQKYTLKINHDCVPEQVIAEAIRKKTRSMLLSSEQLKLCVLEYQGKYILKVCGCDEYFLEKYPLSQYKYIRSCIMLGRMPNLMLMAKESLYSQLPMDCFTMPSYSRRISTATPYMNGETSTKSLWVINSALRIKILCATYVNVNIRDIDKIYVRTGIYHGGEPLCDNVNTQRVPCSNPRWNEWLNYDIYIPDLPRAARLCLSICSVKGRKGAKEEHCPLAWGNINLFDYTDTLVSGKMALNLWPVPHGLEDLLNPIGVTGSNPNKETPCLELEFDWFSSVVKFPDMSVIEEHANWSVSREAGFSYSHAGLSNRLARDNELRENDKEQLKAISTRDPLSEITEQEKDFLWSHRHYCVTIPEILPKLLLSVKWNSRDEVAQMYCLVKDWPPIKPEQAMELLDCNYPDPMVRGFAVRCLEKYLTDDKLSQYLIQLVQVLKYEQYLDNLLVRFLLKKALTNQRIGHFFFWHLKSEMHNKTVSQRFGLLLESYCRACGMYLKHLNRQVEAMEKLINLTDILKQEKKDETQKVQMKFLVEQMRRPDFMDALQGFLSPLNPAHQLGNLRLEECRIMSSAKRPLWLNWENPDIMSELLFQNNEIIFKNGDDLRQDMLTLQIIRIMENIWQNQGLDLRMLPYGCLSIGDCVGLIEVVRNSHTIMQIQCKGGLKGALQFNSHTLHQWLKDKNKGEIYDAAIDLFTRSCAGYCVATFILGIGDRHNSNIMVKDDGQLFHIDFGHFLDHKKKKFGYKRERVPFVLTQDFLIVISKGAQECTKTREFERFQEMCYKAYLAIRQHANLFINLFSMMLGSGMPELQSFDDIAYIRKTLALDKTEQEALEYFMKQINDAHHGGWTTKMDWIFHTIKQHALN
T1 sequence (Q15349 whole entry): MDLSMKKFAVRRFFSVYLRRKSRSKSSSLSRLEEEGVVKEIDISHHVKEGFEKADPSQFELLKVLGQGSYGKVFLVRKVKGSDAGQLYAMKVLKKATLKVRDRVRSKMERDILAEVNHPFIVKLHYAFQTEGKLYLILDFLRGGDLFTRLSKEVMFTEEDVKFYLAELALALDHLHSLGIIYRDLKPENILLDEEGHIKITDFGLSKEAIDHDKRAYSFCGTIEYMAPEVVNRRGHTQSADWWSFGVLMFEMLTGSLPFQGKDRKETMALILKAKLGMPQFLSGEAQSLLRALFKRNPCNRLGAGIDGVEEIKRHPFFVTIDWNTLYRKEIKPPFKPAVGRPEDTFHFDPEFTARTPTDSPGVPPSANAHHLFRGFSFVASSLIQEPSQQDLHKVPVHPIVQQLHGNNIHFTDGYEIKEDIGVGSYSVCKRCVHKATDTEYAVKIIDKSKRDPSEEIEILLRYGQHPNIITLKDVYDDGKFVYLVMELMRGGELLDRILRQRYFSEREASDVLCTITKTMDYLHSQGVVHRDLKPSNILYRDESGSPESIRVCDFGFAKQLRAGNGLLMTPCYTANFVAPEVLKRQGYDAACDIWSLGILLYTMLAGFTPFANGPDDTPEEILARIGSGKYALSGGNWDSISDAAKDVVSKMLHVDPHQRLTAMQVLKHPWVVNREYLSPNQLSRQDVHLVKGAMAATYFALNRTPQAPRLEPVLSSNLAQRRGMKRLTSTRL

Row | Compound | remaining binding at 1 µM ([1]; RSK3 (Kin.Dom.1-N-terminal)) | remaining binding at 1 µM ([1]; RSK3 (Kin.Dom.2-C-terminal)) | remaining binding at 1 µM [2] | remaining binding at 1 µM [3] | remaining binding at 1 µM [4]
1 | Cc1ccc(C(=O)Nc2ccc(CN3CCN(C)CC3)c(C(F)(F)F)c2)cc1C#Cc1cnc2c(Nc3cnn(C)c3)cccn12 [Example 1, 4-methyl-3-((8-((1-methyl-1H-pyrazol-4-yl)amino)imidazo[1,2-a]pyridin-3-yl)ethynyl)-N-(4-((4-methylpiperazin-1-yl)methyl)-3-(trifluoromethyl)phenyl)benzamide] | 29% | 61% | 90% | 14% | 71%
2 | Cc1cn(-c2cc(NC(=O)c3ccc(C)c(C#Cc4cnc5c(Nc6cnn(C)c6)cccn45)c3)cc(C(F)(F)F)c2)cn1 [Example 12, 4-methyl-N-(3-(4-methyl-1H-imidazol-1-yl)-5-(trifluoromethyl)phenyl)-3-((8-((1-methyl-1H-pyrazol-4-yl)amino)imidazo[1,2-a]pyridin-3-yl)ethynyl)benzamide] | 65% | 86% | 100% | 25% | 81%
3 | Cc1ccc(NC(=O)C2(C(=O)Nc3ccc(F)cc3)CC2)cc1C#Cc1cnc2c(Nc3cnn(C(C)C)c3)cccn12 [Example 78] | 97% | 100% | 100% | 100% | 100%
